Measured values from patent US20080021026A1, “BENZOTHIOPHENE INHIBITORS OF RHO KINASE” (priority 2006, published 2008).

The compounds below were run against T1, recombinant N-terminal GST-tagged human Rho kinase 2 (ROCK2, amino acids 1-552) (Homo sapiens, UniProt O75116) (assay: In vitro Rho kinase assay (luciferase-based ATP consumption), ROCK2). Details: ROCK2 IC50, recombinant GST-tagged human ROCK2, luciferase-based ATP consumption.
T1 construct: ROCK2, amino acids 1-552; purchased Invitrogen Inc. PV3759
T1 sequence (O75116 1-552): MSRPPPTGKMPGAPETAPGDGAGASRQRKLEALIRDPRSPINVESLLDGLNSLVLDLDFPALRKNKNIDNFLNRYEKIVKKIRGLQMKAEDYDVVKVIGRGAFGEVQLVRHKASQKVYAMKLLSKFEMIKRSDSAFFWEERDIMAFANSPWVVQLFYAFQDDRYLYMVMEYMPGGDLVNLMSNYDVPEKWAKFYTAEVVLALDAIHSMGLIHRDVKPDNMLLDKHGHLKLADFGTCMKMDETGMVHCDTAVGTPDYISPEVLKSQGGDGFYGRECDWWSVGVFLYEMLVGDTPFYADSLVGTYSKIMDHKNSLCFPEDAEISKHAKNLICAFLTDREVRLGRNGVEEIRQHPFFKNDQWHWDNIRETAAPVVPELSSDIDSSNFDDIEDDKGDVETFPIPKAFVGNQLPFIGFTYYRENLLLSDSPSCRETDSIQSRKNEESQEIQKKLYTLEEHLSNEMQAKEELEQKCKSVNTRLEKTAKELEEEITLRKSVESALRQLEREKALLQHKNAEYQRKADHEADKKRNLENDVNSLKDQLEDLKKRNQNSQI
Format: biochemical
Protocol: In Vitro Rho Kinase Assay
Rho kinase biochemical assays described below depend on firefly luciferase-based, indirect measurement of total ATP consumption by the kinase following incubation with substrate and ATP. 25 μl of Rho kinase assay buffer (20 mM Tris-HCL [pH 7.5], 1 mM MgCl2, 0.4 mM CaCl2, 0.15 mM EGTA, 0.1 mg/ml bovine serum albumin) containing 0.82 μg/ml of recombinant N-terminal GST-tagged human Rho kinase 1 (ROCK1, amino acids 1-535, Invitrogen Inc., cat. #PV-3691) or recombinant N-terminal GST-tagged human Rho kinase 2 (ROCK2, amino acids 1-552, Invitrogen Inc., cat #PV3759), 100 μg/ml S6 peptide substrate (related to amino acids 218-249 of the human 40S ribosomal protein S6, and suitable for ROCK1 or ROCK2, e.g. Upstate/Millipore Inc., cat #12-420), and 3 µM ATP are dispensed to wells of a 384 multi-well opaque plate. The plate is centrifuged for 30 seconds at approximately 200×g. 240 nl of test compound in DMSO is dispensed to each well by passive pin transfer. The lag phase of this in vitro kinase reaction permits addition of compounds soon after the reaction initiates. The reaction is allowed to incubate at 30° C. for 2 hours. The assay plates are sealed and maintained in a humidified environment. After 2 hours, 25 μl of easylite protein kinase assay reagent (Perkin-Elmer, Inc.) is dispensed. After an additional 10 minute incubation at room temperature (about 22° C.), luminescence activity is measured on a Molecular Devices Analyst multi-mode plate reader or other suitable plate reader. Kinase inhibition results in less ATP consumption, and therefore increased luminescence signal. Negative control activity is measured with DMSO lacking any test compound. The positive control is 2-methyl-1-(4-methylisoquinolin-5-ylsulfonyl)perhydro-1,4-diazepine hydrochloride (aka H-1152P, HCl salt). Efficacy is measured as a percentage of positive control activity. […] In some cases, kinase reactions and compound testing are performed in 1536 multi-well plates under similar conditions, with assay volumes appropriately scaled. The designation NT means the cited example was not tested.
With Cc1c(-c2ccnc(N)n2)sc2ccc(C(=O)NCCc3ccccc3Cl)cc12 [Example 427, Cc1c(sc2ccc(cc12)C(═O)NCCc3ccccc3Cl)-c4ccnc(N)n4] the IC50 was less than 5 µM. Cc1c(-c2ccnc(N)n2)sc2ccc(C(=O)NCc3ccccc3Cl)cc12 [Example 409, Cc1c(sc2ccc(cc12)C(═O)NCc3ccccc3Cl)-c4ccnc(N)n4] gave an IC50 of less than 5 µM.

Same assay, conditions: recombinant GST-tagged human ROCK2, luciferase-based ATP consumption; read-out: ROCK2 IC50
In the case of Cc1c(-c2ccnc(N)n2)sc2ccc(C(=O)NCc3ccc(C(C)(C)C)cc3)cc12 [Example 436, Cc1c(sc2ccc(cc12)C(═O)NCc3ccc(cc3)C(C)(C)C)-c4ccnc(N)n4], the IC50 is reported as greater than 5 µM. Work on CCNC(=O)c1ccc2sc(-c3ccnc(N)n3)c(C)c2c1 [Example 330, CCNC(═O)c1ccc2sc(c(C)c2c1)-c3ccnc(N)n3] yielded an IC50 of less than 5 µM. In the case of CCOC(=O)N1CCC(NC(=O)c2ccc3sc(-c4ccnc(N)n4)c(C)c3c2)CC1 [Example 442, CCOC(═O)N1CCC(CC1)NC(═O)c2ccc3sc(c(C)c3c2)-c4ccnc(N)n4], the IC50 is reported as less than 5 µM. Compound Cc1c(-c2ccnc(N)n2)sc2ccc(C(=O)NCc3ccc(C(C)C)cc3)cc12 [Example 419, CC(C)c1ccc(CNC(═O)c2ccc3sc(c(C)c3c2)-c4ccnc(N)n4)cc1] has an IC50 of less than 5 µM. Compound Cc1c(-c2ccnc(N)n2)sc2ccc(C(=O)N3CCCC4CCCCC43)cc12 (stereo not drawn) [Example 502, Cc1c(sc2ccc(cc12)C(═O)N3CCCC4CCCCC34)-c5ccnc(N)n5] has an IC50 greater than 5 µM. COc1ccc(NC(=O)c2ccc3sc(-c4ccnc(N)n4)c(C)c3c2)cc1OC [Example 426, COc1ccc(NC(═O)c2ccc3sc(c(C)c3c2)-c4ccnc(N)n4)cc1OC] showed an IC50 of less than 5 µM. Work on COc1ccc(CCN(C)C(=O)c2ccc3sc(-c4ccnc(N)n4)c(C)c3c2)cc1OC [Example 543, COc1ccc(CCN(C)C(═O)c2ccc3sc(c(C)c3c2)-c4ccnc(N)n4)cc1OC] yielded an IC50 greater than 5 µM. With Cc1c(-c2ccnc(N)n2)sc2ccc(C(=O)NCCC(c3ccccc3)c3ccccc3)cc12 [Example 457, Cc1c(sc2ccc(cc12)C(═O)NCCC(c3ccccc3)c4ccccc4)-c5ccnc(N)n5] the IC50 was greater than 5 µM. Work on Cc1c(-c2ccnc(N)n2)sc2ccc(C(=O)N3CCN(c4ccccn4)CC3)cc12 [Example 514, Cc1c(sc2ccc(cc12)C(═O)N3CCN(CC3)c4ccccn4)-c5ccnc(N)n5] yielded an IC50 greater than 5 µM. For Cc1c(-c2ccnc(N)n2)sc2ccc(C(=O)N(C)CCc3ccccc3)cc12 [Example 500, CN(CCc1ccccc1)C(═O)c2ccc3sc(c(C)c3c2)-c4ccnc(N)n4], the IC50 was less than 5 µM. For Cc1c(-c2ccnc(N)n2)sc2ccc(C(=O)NC3CCC3)cc12 [Example 339, Cc1c(sc2ccc(cc12)C(═O)NC3CCC3)-c4ccnc(N)n4], the IC50 was less than 5 µM. For Cc1c(-c2ccnc(N)n2)sc2ccc(C(=O)N3CCN(c4ccc(Cl)cc4)CC3)cc12 [Example 545, Cc1c(sc2ccc(cc12)C(═O)N3CCN(CC3)c4ccc(Cl)cc4)-c5ccnc(N)n5], the IC50 was greater than 5 µM. Cc1c(-c2ccnc(N)n2)sc2ccc(C(=O)NCCc3ccc(S(N)(=O)=O)cc3)cc12 [Example 454, Cc1c(sc2ccc(cc12)C(═O)NCCc3ccc(cc3)S(N)(═O)═O)-c4ccnc(N)n4] was tested, and the IC50 was less than 5 µM. Cc1ccc(N2CCN(C(=O)c3ccc4sc(-c5ccnc(N)n5)c(C)c4c3)CC2)c(C)c1 [Example 538, Cc1ccc(N2CCN(CC2)C(═O)c3ccc4sc(c(C)c4c3)-c5ccnc(N)n5)c(C)c1] gave an IC50 greater than 5 µM. Cc1c(-c2ccnc(N)n2)sc2ccc(C(=O)NCc3cccc(F)c3)cc12 [Example 382, Cc1c(sc2ccc(cc12)C(═O)NCc3cccc(F)c3)-c4ccnc(N)n4] gave an IC50 of less than 5 µM. CCC(C)CNC(=O)c1ccc2sc(-c3ccnc(N)n3)c(C)c2c1 (stereo not drawn) [Example 348, CCC(C)CNC(═O)c1ccc2sc(c(C)c2c1)-c3ccnc(N)n3] showed an IC50 of less than 5 µM. Cc1c(-c2ccnc(N)n2)sc2ccc(C(=O)NC3CCCCCC3)cc12 [Example 370, Cc1c(sc2ccc(cc12)C(═O)NC3CCCCCC3)-c4ccnc(N)n4] was tested, and the IC50 was greater than 5 µM. Work on Cc1c(-c2ccnc(N)n2)sc2ccc(C(=O)NCc3cccc(C(F)(F)F)c3)cc12 [Example 445, Cc1c(sc2ccc(cc12)C(═O)NCc3cccc(c3)C(F)(F)F)-c4ccnc(N)n4] yielded an IC50 of less than 5 µM. Cc1c(-c2ccnc(N)n2)sc2ccc(C(=O)N[C@H](CO)Cc3ccccc3)cc12 [Example 422, Cc1c(sc2ccc(cc12)C(═O)N[C@H](CO)Cc3ccccc3)-c4ccnc(N)n4] showed an IC50 of less than 5 µM. With Cc1c(-c2ccnc(N)n2)sc2ccc(C(=O)N3CCCC(c4ccc(C(F)(F)F)cc4)C3)cc12 (stereo not drawn) [Example 571, Cc1c(sc2ccc(cc12)C(═O)N3CCCC(C3)c4ccc(cc4)C(F)(F)F)-c5ccnc(N)n5] the IC50 was greater than 5 µM. In the case of Cc1c(-c2ccnc(N)n2)sc2ccc(C(=O)N3CCN(Cc4ccc5c(c4)OCO5)CC3)cc12 [Example 563, Cc1c(sc2ccc(cc12)C(═O)N3CCN(CC3)Cc4ccc5OCOc5c4)-c6ccnc(N)n6], the IC50 is reported as less than 5 µM. For COc1ccccc1N1CCN(C(=O)c2ccc3sc(-c4ccnc(N)n4)c(C)c3c2)CC1 [Example 541, COc1ccccc1N2CCN(CC2)C(═O)c3ccc4sc(c(C)c4c3)-c5ccnc(N)n5], the IC50 was greater than 5 µM. Work on Cc1c(-c2ccnc(N)n2)sc2ccc(C(=O)N3CCN(C)CC3)cc12 [Example 474, CN1CCN(CC1)C(═O)c2ccc3sc(c(C)c3c2)-c4ccnc(N)n4] yielded an IC50 of less than 5 µM. For COCCNC(=O)c1ccc2sc(-c3ccnc(N)n3)c(C)c2c1 [Example 345, COCCNC(═O)c1ccc2sc(c(C)c2c1)-c3ccnc(N)n3], the IC50 was less than 5 µM. With CCOC(=O)C1CCCN(C(=O)c2ccc3sc(-c4ccnc(N)n4)c(C)c3c2)C1 (stereo not drawn) [Example 510, CCOC(═O)C1CCCN(C1)C(═O)c2ccc3sc(c(C)c3c2)-c4ccnc(N)n4] the IC50 was less than 5 µM. With Cc1c(-c2ccnc(N)n2)sc2ccc(C(=O)N3CCCC(CO)C3)cc12 (stereo not drawn) [Example 486, Cc1c(sc2ccc(cc12)C(═O)N3CCCC(CO)C3)-c4ccnc(N)n4] the IC50 was less than 5 µM. Work on Cc1c(-c2ccnc(N)n2)sc2ccc(C(=O)N(Cc3cccnc3)Cc3cccnc3)cc12 [Example 547, Cc1c(sc2ccc(cc12)C(═O)N(Cc3cccnc3)Cc4cccnc4)-c5ccnc(N)n5] yielded an IC50 of less than 5 µM. In the case of Cc1c(-c2ccnc(N)n2)sc2ccc(C(=O)NC3CC(C)(C)NC(C)(C)C3)cc12 [Example 430, Cc1c(sc2ccc(cc12)C(═O)NC3CC(C)(C)NC(C)(C)C3)-c4ccnc(N)n4], the IC50 is reported as less than 5 µM. Cc1c(-c2ccnc(N)n2)sc2ccc(C(=O)NCCO)cc12 [Example 337, Cc1c(sc2ccc(cc12)C(═O)NCCO)-c3ccnc(N)n3] gave an IC50 of less than 5 µM. Compound CCCCN(CC)C(=O)c1ccc2sc(-c3ccnc(N)n3)c(C)c2c1 [Example 477, CCCCN(CC)C(═O)c1ccc2sc(c(C)c2c1)-c3ccnc(N)n3] has an IC50 of less than 5 µM. Cc1c(-c2ccnc(N)n2)sc2ccc(C(=O)NCCCNC(=O)OC(C)(C)C)cc12 [Example 443, Cc1c(sc2ccc(cc12)C(═O)NCCCNC(═O)OC(C)(C)C)-c3ccnc(N)n3] gave an IC50 of less than 5 µM. In the case of COc1ccc(C(=O)CNC(=O)c2ccc3sc(-c4ccnc(N)n4)c(C)c3c2)cc1 [Example 455, COc1ccc(cc1)C(═O)CNC(═O)c2ccc3sc(c(C)c3c2)-c4ccnc(N)n4], the IC50 is reported as less than 5 µM. CCC(CO)NC(=O)c1ccc2sc(-c3ccnc(N)n3)c(C)c2c1 (stereo not drawn) [Example 353, CCC(CO)NC(═O)c1ccc2sc(c(C)c2c1)-c3ccnc(N)n3] showed an IC50 of less than 5 µM. In the case of Cc1c(-c2ccnc(N)n2)sc2ccc(C(=O)NC3CCC(C)CC3)cc12 (stereo not drawn) [Example 368, CC1CCC(CC1)NC(═O)c2ccc3sc(c(C)c3c2)-c4ccnc(N)n4], the IC50 is reported as greater than 5 µM. Cc1c(-c2ccnc(N)n2)sc2ccc(C(=O)NCC(C)C)cc12 [Example 342, CC(C)CNC(═O)c1ccc2sc(c(C)c2c1)-c3ccnc(N)n3] showed an IC50 of less than 5 µM. Compound COc1ccc(N2CCN(C(=O)c3ccc4sc(-c5ccnc(N)n5)c(C)c4c3)CC2)cc1 [Example 540, COc1ccc(cc1)N2CCN(CC2)C(═O)c3ccc4sc(c(C)c4c3)-c5ccnc(N)n5] has an IC50 of less than 5 µM. CCOC(=O)N1CCN(C(=O)c2ccc3sc(-c4ccnc(N)n4)c(C)c3c2)CC1 [Example 511, CCOC(═O)N1CCN(CC1)C(═O)c2ccc3sc(c(C)c3c2)-c4ccnc(N)n4] showed an IC50 greater than 5 µM. Compound Cc1c(-c2ccnc(N)n2)sc2ccc(C(=O)NCCc3cccc(Cl)c3)cc12 [Example 429, Cc1c(sc2ccc(cc12)C(═O)NCCc3cccc(Cl)c3)-c4ccnc(N)n4] has an IC50 of less than 5 µM. Work on Cc1c(-c2ccnc(N)n2)sc2ccc(C(=O)N3CCN(Cc4ccccc4)CC3)cc12 [Example 521, Cc1c(sc2ccc(cc12)C(═O)N3CCN(CC3)Cc4ccccc4)-c5ccnc(N)n5] yielded an IC50 greater than 5 µM. In the case of CCN(CC)CCCC(C)NC(=O)c1ccc2sc(-c3ccnc(N)n3)c(C)c2c1 (stereo not drawn) [Example 431, CCN(CC)CCCC(C)NC(═O)c1ccc2sc(c(C)c2c1)-c3ccnc(N)n3], the IC50 is reported as greater than 5 µM.
